{"source": "patent US20230233500A1", "about": "“Gasdermin D (GSDMD) Succination for the Treatment of Inflammatory Disease” (University of Massachusetts, priority 2020, published 2023)", "key": {"[1]": {"tested_on": "human THP1", "assay": "LPS-Nig induced cell death and LDH release in THP1 cells", "format": "cell-based", "details": "PMA-differentiated THP1, fumarate 25 μM; for LPS-Nig induced cell death: SYTOX Orange", "method": "FIGS. 6A-G. Fumarate inhibits pyroptosis in Human cells. (A-B) Representative images (A) and kinetic data (B) of SYTOX Orange and Hoechst-stained PMA-differentiated THP1 cells treated with LPS for 2 hours, DMSO (vehicle) or fumarate (25 μM) for 1 hour and nigericin (10 μM) for 6 hours. (C) LDH release from (A). (D-E) Kinetic cell death data of SYTOX Orange and Hoechst stained (D) or LDH assay of conditioned medium from primary CD14+ positive monocytes treated with LPS for 2 hours DMSO (vehicle) or fumarate (25 μM) for 1 hour and nigericin (10 μM) for 6 hours. (F) LC/MS quantification of fumarate in WT BMDMs treated with LPS for 2 hours, FHIN1 for 1 hour and nigericin for 1 hour. (G) Representative images of WT primary BMDMs stained with SYTOX Orange and Hoechst following treatment with LPS for 2 hours, DMSO (vehicle) or fumarate (25 μM) or FHIN1 (25 μM) for 1 hour and nigericin for a timecourse of 6 hours. A, B, D, G are representative of 3 independent experiments. C, E, F are pooled data from 3 independent experiments. ***, P<0.001, ****, P<0.00001 (Students t-test). Error bars show mean±SD (B, D) or SEM (C, E). Human kidney cell line HEK293T was cultured in Dulbecco's modified Eagle's medium supplemented with 10% (v/v) fetal bovine serum, 100 U/ml penicillin and 100 µg/ml streptomycin. Human peripheral blood monocyte cell line, THP1 cells were cultured in RPMI-1640 medium supplemented with 10% (v/v) fetal bovine serum, 100 U/ml penicillin and 100 µg/ml streptomycin. For isolation of BMDMs, tibias and femurs were removed from wild type and GsdmD^−/− mice and bone marrow was flushed with complete DMEM-medium. Cells were plated in medium containing 20% (v/v) conditioned medium of L929 mouse fibroblasts cultured for 7 days at 37° C. in a humidified atmosphere of 5% C02. Medium was replaced every 3 days. Cells were plated, treated and incubated in phenol red free medium. Following treatment medium was collected and assessed for LDH release using the CytoTox96 non-radioactive cytotoxicity assay (Promega) as per manufacturer's instructions. […]"}, "[2]": {"target": "T1, GSDMD-N (Mus musculus, UniProt Q9D8T2)", "T1 construct": "Caspase cleavage of GSDMD liberates an N-terminal pore forming fragment (GSDMD-N, p30); host or cells: HEK293T", "T1 sequence (Q9D8T2 1-276 limits assumed)": "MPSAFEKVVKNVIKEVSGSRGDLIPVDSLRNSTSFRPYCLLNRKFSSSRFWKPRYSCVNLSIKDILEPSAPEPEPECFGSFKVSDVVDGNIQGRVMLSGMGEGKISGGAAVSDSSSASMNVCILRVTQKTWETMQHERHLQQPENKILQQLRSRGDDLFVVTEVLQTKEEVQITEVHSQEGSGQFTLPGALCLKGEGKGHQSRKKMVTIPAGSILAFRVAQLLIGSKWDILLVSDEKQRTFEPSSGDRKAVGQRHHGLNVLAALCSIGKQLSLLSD", "assay": "GSDMD-N induced LDH release in HEK293T cells", "format": "cell-based", "details": "transfected HEK293T cells", "description": "FIGS. 2A-J. Succination of GSDMD inhibits pyroptosis. Immunoblot of GSDMD in streptavidin pulldown from clicked lysates treated as indicated (A-B). Representative MS spectra of 2-monomethyl and 2-dimethylsuccination of GSDMD immunoprecipitated from fumarate treated BMDMs (C-D). Immunoblot of GSDMD in clicked lysates from transfected HEK293T. Cell death of HEK293T transfected as indicated (F-H). Immunoblots of casplp20 and GSDMD in BMDMs (I). Immunoblots of an in vitro binding assay of succinated and non-succinated GSDMD incubated with caspase 1 beads (J). A, B, F, J, […] representative images from three independent experiments. C, D, E, representative mass spec spectra from two independent experiments. H, I pooled data from three independent experiments. ***, P<0.001 (One-way anova). Error bars show means±SEM.\nCells were plated, treated and incubated in phenol red free medium. Following treatment medium was collected and assessed for LDH release using the CytoTox96 non-radioactive cytotoxicity assay (Promega) as per manufacturer's instructions. […]\nPrimary BMDMs from WT or GsdmD^−/− mice were cultured in 12-well plates (1×10^6 cells per ml; 1 ml) or 10 cm dishes (2×10^6 cells per ml; 10 ml). […] Samples were resolved by SDS-PAGE and stained using simply blue safe stain or transferred to nitrocellulose membranes and analyzed by immunoblot. […]"}}, "note": "Structures can show the parent of a compound that is named as a salt."}
{"compound": "COC(=O)/C=C/C(=O)OC", "note": "[Fumarate, Dimethyl fumarate]", "values": [{"measurement": "LPS-Nig induced LDH release", "setting": "[1]", "value": "blocked"}, {"measurement": "LPS-Nig induced cell death", "setting": "[1]", "value": "blocked"}, {"measurement": "LPS-Nig induced cell death", "setting": "[1]; listed as fumarate", "value": "inhibited cell death"}, {"measurement": "GSDMD-N induced LDH release", "setting": "[2]", "value": "inhibited"}]}
